In patent publication US10471095B2, “Suspension of graphene oxide nanoflakes in water, its use and a method of preparation thereof” (priority 2014, dated 2019):

Test system: chicken embryo
Assay: Toxicity of graphene oxide and nano-Pt in chicken embryo (in ovo)
Conditions: in vivo
Description: Biological models: study was conducted on models: 1. Chicken embryo maintained by in ovo method, which above all allowed for fast, accurate and insightful observations of potential toxicity, especially embryotoxicity of graphene oxide and Pt nanoparticles of various concentrations. 2. Glioblastoma multiforme GM (U-87) cell lines in order to observe basic mechanisms occurring in the cells under the influence of graphene oxide and platinum nanoparticles and having selected the used experimental factors 3. Glioblastoma multiforme (U-87) tumour grown by in ovo method in order to confirm or reject the preliminary results. This study allowed for the final verification of formulated hypotheses.
Step I—preliminary study—determination of potential toxic properties of graphene oxide and nano-Pt in contact with a living organism (chicken embryo) • Determination of the influence of graphene oxide and nano-Pt on homeostasis of the organism of chicken embryo (survival rate, growth and development, biochemical and morphological indicators of blood, expression of selected genes, image of microstructure and ultrastructure of the brain, apoptosis/necrosis and others). […] The study indicated a potential antitumor effect of Pt nanoparticles and a low degree of toxicity.

Substance: graphene oxide
- toxic effects on biochemical and morphological indicators of blood, FGF, VEGF, PCNA gene expression, microstructure and ultrastructure of brain and liver: does not exhibit toxic effects
